Marks after values point to notes of the source that are not given here.
What was measured:
[1] = test system: Bm12 mouse skin allograft; experiment: Rejection of Bm12 skin graft (MHC class II mismatch) in pre-immunized C57B1/6 mice; type: in vivo; settings: 3 subcutaneous administrations in CFA/IFA at fortnight intervals
Description: The Bm12 mice constitute a variant of the C57B1/6 mice in which a spontaneous mutation has occurred in the I-Ab locus. This mutation consists of 3 amino acid substitutions in a stretch of 5 amino acids and thereby generates a limited MHC class II mismatch between Bm12 mice and C57B1/6 wild type mice. This mismatch is nevertheless sufficient as to elicit rejection of Bm12 mouse skin allograft.
The 3 substituted amino acids are Ile67Phe, Arg70Gln and Thr71Lys located in the third hypervariable region of the beta chain. A synthetic peptide encompassing these residues was made and has the sequence: PEFLEQKRA (SEQ ID. NO: 10). This peptide was modified according to the invention by incorporation of a thioreductase consensus sequence, resulting in the exemplary immunogenic peptide CGHCPEFLEQKRA (SEQ ID. NO: 11).
Cytotoxic CD4+ regulatory T cells towards the modified peptide of SEQ ID. NO: 11 are elicited in C57B1/6 mice by 3 subcutaneous administration of the peptide in CFA/IFA given at fortnight intervals. Such mice are then grafted with the skin of Bm12 mice.

[2] = test system: APC (antigen-presenting cells); experiment: Apoptosis of peptide-loaded APC (Annexin V binding) induced by CD4+ T cells from immunized mice (Dby peptides); type: cell-based, C57B1/6 mice; settings: 10 μg peptide SC in CFA then IFA; APC loaded with SEQ ID. NO: 5 or SEQ ID. NO: 6
Experimental: Groups of C57BL/6 female mice were immunized with 10 μg of peptide of SEQ ID. NO: 6 emulsified in CFA (complete Freund's adjuvant) for the first SC (subcutaneous) injection and in IFA (incomplete Freund's adjuvant) for the two subsequent immunizations. The spleen of such mice was retrieved 10 days after the last immunization and CD4+ T cells were obtained by cell sorting using magnetic beads.
These CD4+ T cells were assayed in vitro for their capacity to induce apoptosis of APC (antigen-presenting cells). Thus, spleen cells of naïve C57B1/6 mice were deprived of CD4+ T cells by magnetic bead sorting and used as APC. Such APC were loaded with peptides of either SEQ ID. NO: 5 or of SEQ ID. NO: 6 by incubation for 16 h at room temperature. The cells were then washed to eliminate residual free peptides.

[3] = test system: male C57B1/6 skin allograft; experiment: Skin graft rejection, male skin onto pre-immunized syngeneic female mice (naive mice); type: in vivo, C57B1/6 mice; settings: for Rejection rate Day 10 / Rejection rate Day 20: 3 SC injections, rejected mice/mice, rejection = more than 50% of graft surface necrotic; for Effect of pre-immunization on skin graft rejection (in words): pre-immunization in either CFA/IFA or alum
Experimental: One of the most studied models of graft rejection is skin grafting between syngeneic animals of different sex. Thus, the […] contains a number of genes, in particular the Dby gene, which encodes a minor histocompatibility antigen that elicits strong CD4+ T cell activation and chronic rejection in females. […] T cell epitopes from the Dby antigen have been described and selected as shown in Example 1 (peptide of SEQ ID. NO: 5). A synthetic peptide of SEQ ID. NO: 6 was prepared. Groups of 3 female C57B1/6 mice (H-2b haplotype) were made for testing the capacity of modified peptides of SEQ ID NO:1 to elicit tolerance to the skin allograft. Where applicable, pre-immunization was carried out by 3 subcutaneous injections of peptides containing either the natural epitope or its modified counterpart. Injections were made at fortnight intervals in either CFA/IFA or alum. Groups were therefore as follows: • Group 1: skin allograft without preimmunization • Group 2: skin autograft • Group 3: preimmunization with peptide of SEQ ID. NO: 6 emulsified in CFA (first immunization) and IFA for second and third immunization) • Group 4: same as in Group 3, but with alum as an adjuvant • Group 5: same as in Group 3, but using the natural peptide of SEQ ID. NO: 5 All these mice, except for Group 2 mice, received a male C57B1/6 skin allograft of 1 cm2, either directly (Group 1) or 2 weeks after the last immunization for Groups 3, 4 and 5. Group 2 mice received and autograft. Rejection rate was evaluated at day 10 and 20 and judged effective if more than 50% of the graft surface was necrotic.

[4] = test system: heterotopic male heart transplant; experiment: Heterotopic male heart transplant in pre-immunized syngeneic female mice; type: in vivo, C57B1/6 mice; settings: 3 subcutaneous injections at fortnight intervals in CFA/IFA
Description: To establish the proof of concept that cytolytic regulatory CD4+ T cells of the present invention can prevent rejection of a vascularized organ, the model of heterotopic heart transplantation is used. This method is well known in the art, as described for instance in Kadner A et al, European Journal of Cardio-thoracic Surgery (2000) 17: 474-481. Briefly, the method consists in abdominal implantation of the heart in a non-working setting, namely the heart is vascularized but not supporting the circulation. This allows long-term follow-up of the graft and multiple biopsies without killing the experimental animal.
Hearts from C57BL/6 males are grafted using such technique in the abdomen of syngeneic females. The rejection process, which is mediated by expression of H-Y-derived antigens in both MHC class I and MHC class II determinants, is mainly due to the circulation of recipient's specific CD4+ T cells that are activated by recognition of alloantigen-derived peptides by graft endothelial cells. Such CD4+ T cells produce IL-2 and IFN-gamma, driving more inflammation and providing help for the maturation of specific CD8+ T cells.
C57B1/6 female mice are pre-immunized before receiving the male allograft with peptides of either SEQ ID NO:5, SEQ ID NO:6 or a sham peptide. This is carried out by 3 subcutaneous injections of peptides made at fortnight intervals in either CFA/IFA. Thereafter, all mice receive a heterotopic male heart transplant.

Row | Sequence | Rejection of Bm12 skin graft after preimmunization [1] | APC apoptosis (surface binding of Annexin V) induced by CD4+ T cells of mice immunized with the peptide [2] | Rejection rate Day 10 ([3]; pre-immunization in CFA/IFA) | Rejection rate Day 20 ([3]; pre-immunization in CFA/IFA) | Rejection rate Day 10 ([3]; pre-immunization in alum) | Rejection rate Day 20 ([3]; pre-immunization in alum) | Effect of pre-immunization on skin graft rejection (in words) [3] | Graft findings (cellular infiltration, endothelitis, chronic vascular lesions) [4] | Outcome of transplanted heart after pre-immunization [4]
1 | CGHCPEFLEQKRA (redox motif + mutated version of I-Ab locus) [SEQ ID. NO: 11] | reject the B12m graft unless they are preimmunized with the peptide of SEQ ID. NO: 11 | – | – | – | – | – | – | – | –
2 | CHGCFNSNRANSS (redox motif + T cell epitope of Dby antigen) [SEQ ID. NO: 6] | – | induced into apoptosis | 0/3 | 0/3 | 0/3 | 0/3 | fully prevents graft rejection | absence of cellular infiltration, of signs of endothelitis and of chronic vascular lesions | tolerate the graft
3 | FNSNRANSS (T cell epitope of Dby antigen) [SEQ ID. NO: 5, reference compound] | – | did not induce any significant degree of APC apoptosis | 2/3 | 2/3** | – | – | accelerates the rejection | – | show rejection of the transplanted heart
